Assay results: the supplement of paper PMC6045584
± gives the standard deviation of the averaged measurements.

Tests used:
[1] = compound: CCN(CC)CCCCNc1ncc2cc(-c3cc(OC)cc(OC)c3)c(NC(=O)NC(C)(C)C)nc2n1; experiment: surviving fraction relative to DMSO-only wells; higher = less growth inhibition; conditions: exposure time: 5 days
How it was run: (§1)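 Surviving fraction was calculated by normalising CellTiter-Glo luminescence to the median of DMSO-only wells. Tumour cell lines in log phase were seeded in 384-well plates at 250–500 cells per well, and 24 hours later were exposed continuously for five days to inhibitors at 0.5, 1, 5, 10, 50, 100, 500 and 1000 nM.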

2-METHOXYESTRADIOL = compound: COc1cc2c(cc1O)CC[C@@H]1[C@@H]2CC[C@]2(C)[C@@H](O)CC[C@@H]12 [2-METHOXYESTRADIOL]; experiment: as above; conditions: exposure time: 5 days
How it was run: as §1

Test System | surviving fraction ([1]; 0.5 nM) | surviving fraction ([1]; 1 nM) | surviving fraction ([1]; 5 nM) | surviving fraction ([1]; 10 nM) | surviving fraction ([1]; 50 nM) | surviving fraction ([1]; 100 nM) | surviving fraction ([1]; 500 nM) | surviving fraction ([1]; 1000 nM) | surviving fraction (2-METHOXYESTRADIOL; 0.5 nM) | surviving fraction (2-METHOXYESTRADIOL; 1 nM) | surviving fraction (2-METHOXYESTRADIOL; 5 nM) | surviving fraction (2-METHOXYESTRADIOL; 10 nM) | surviving fraction (2-METHOXYESTRADIOL; 50 nM) | surviving fraction (2-METHOXYESTRADIOL; 100 nM) | surviving fraction (2-METHOXYESTRADIOL; 500 nM) | surviving fraction (2-METHOXYESTRADIOL; 1000 nM)
SCC90 HEADNECK | 0.884 ± 0.044 | 0.96 ± 0.036 | 0.839 ± 0.18 | 0.951 ± 0.036 | 0.88 ± 0.049 | 0.961 ± 0.17 | 0.883 ± 0.17 | 0.814 ± 0.035 | 0.927 ± 0.058 | 0.721 ± 0.076 | 1.02 ± 0.1 | 0.923 ± 0.12 | 1 ± 0.1 | 0.875 ± 0.099 | 0.185 ± 0.017 | 0.102 ± 0.013
93VU HEADNECK | 0.952 ± 0.063 | 0.975 ± 0.062 | 1.02 ± 0.1 | 1.03 ± 0.11 | 1.03 ± 0.095 | 0.884 ± 0.18 | 1.01 ± 0.085 | 0.949 ± 0.076 | 0.864 ± 0.13 | 0.829 ± 0.072 | 1.07 ± 0.096 | 1.14 ± 0.062 | 1.09 ± 0.058 | 0.921 ± 0.017 | 0.741 ± 0.049 | 0.788 ± 0.034
MDAMB436 BREAST | 0.974 ± 0.053 | 0.802 ± 0.074 | 0.912 ± 0.026 | 0.911 ± 0.041 | 0.943 ± 0.1 | 0.974 ± 0.033 | 0.911 ± 0.032 | 0.878 ± 0.032 | 0.944 ± 0.012 | 0.951 ± 0.19 | 1 ± 0.016 | 0.953 ± 0.065 | 0.956 ± 0.065 | 0.971 ± 0.045 | 0.779 ± 0.12 | 0.62 ± 0.079
LNCAP PROSTATE | 0.864 ± 0.066 | 0.878 ± 0.1 | 0.7647 ± 0.0046 | 0.922 ± 0.16 | 0.898 ± 0.11 | 0.934 ± 0.11 | 0.933 ± 0.11 | 1.03 ± 0.026 | 1.01 ± 0.039 | 0.922 ± 0.039 | 0.975 ± 0.094 | 0.901 ± 0.092 | 0.884 ± 0.13 | 0.809 ± 0.091 | 0.681 ± 0.033 | 0.208 ± 0.0072
MHM BONE | 0.991 ± 0.026 | 0.993 ± 0.014 | 0.982 ± 0.023 | 1.001 ± 0.0095 | 0.964 ± 0.02 | 0.915 ± 0.029 | 0.7063 ± 0.007 | 0.664 ± 0.017 | 1.02 ± 0.035 | 1.01 ± 0.033 | 1.04 ± 0.049 | 1.03 ± 0.05 | 1.04 ± 0.029 | 1.03 ± 0.045 | 0.975 ± 0.015 | 0.673 ± 0.048
CME SYNOVIAL | 1.08 ± 0.089 | 1.254 ± 0.0095 | 1.24 ± 0.14 | 1.25 ± 0.16 | 1.18 ± 0.1 | 1.22 ± 0.05 | 1.06 ± 0.068 | 0.969 ± 0.11 | 1.17 ± 0.12 | 1.01 ± 0.079 | 1.19 ± 0.026 | 1.08 ± 0.014 | 1.26 ± 0.11 | 1.16 ± 0.15 | 0.711 ± 0.14 | 0.38 ± 0.027
OSHN BONE | 1 ± 0.016 | 1.01 ± 0.017 | 1.01 ± 0.024 | 1.03 ± 0.033 | 0.993 ± 0.023 | 1.01 ± 0.033 | 1.02 ± 0.035 | 1.04 ± 0.042 | 1.03 ± 0.012 | 1.046 ± 0.0025 | 1.05 ± 0.026 | 1.031 ± 0.0067 | 1.054 ± 0.0092 | 1.068 ± 0.007 | 1.04 ± 0.033 | 0.044 ± 0.0036
MCF7 BREAST | 0.884 ± 0.024 | 0.868 ± 0.063 | 0.864 ± 0.03 | 0.877 ± 0.068 | 0.878 ± 0.04 | 0.861 ± 0.038 | 0.878 ± 0.042 | 0.908 ± 0.069 | 0.846 ± 0.015 | 0.837 ± 0.017 | 0.857 ± 0.0097 | 0.8506 ± 0.0053 | 0.903 ± 0.027 | 0.924 ± 0.083 | 0.943 ± 0.048 | 0.685 ± 0.086
CAL51 BREAST | 0.92 ± 0.063 | 0.943 ± 0.013 | 0.964 ± 0.061 | 0.961 ± 0.042 | 0.858 ± 0.035 | 0.83 ± 0.03 | 0.673 ± 0.019 | 0.6517 ± 0.0035 | 0.949 ± 0.068 | 1.01 ± 0.081 | 0.992 ± 0.018 | 0.996 ± 0.063 | 0.967 ± 0.044 | 1 ± 0.046 | 0.48 ± 0.036 | 0.0988 ± 0.0065
SUM149.B1*.S BREAST | 0.852 ± 0.049 | 1 ± 0.017 | 0.952 ± 0.024 | 1.02 ± 0.021 | 0.933 ± 0.029 | 1.06 ± 0.041 | 1.03 ± 0.011 | 1.08 ± 0.017 | 1.04 ± 0.011 | 1.02 ± 0.046 | 1.02 ± 0.025 | 1.02 ± 0.04 | 1.06 ± 0.025 | 1.08 ± 0.019 | 0.968 ± 0.015 | 0.628 ± 0.036
